In PubChem BioAssay AID248 (DTP/NCI, 2004):
Toxic doses and inconclusive results are not listed. Rule as the data show it: active = T/C of 150% or more; inactive = T/C below 125%.

System: L1210 leukemia ip in BDF1 mice, survival T/C
Assay: NCI In Vivo Anticancer Drug Screen. Data for tumor model L1210 Leukemia (intraperitoneal) in B6D2F1 (BDF1) mice
Conditions: endpoint: mean survival time, higher = longer survival
Procedure, shortened: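 Read-out is survival time, reported as the treated-group measurement over the vehicle-control measurement.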

[1] = dose: 100.0 mg/kg/injection, schedule: Q01DX001 (ip), vehicle: Klucel (hydroxypropylcellulose) (HPC)
[2] = dose: 200.0 mg/kg/injection, schedule: Q01DX001 (ip), vehicle: Klucel (hydroxypropylcellulose) (HPC)
[3] = dose: 400.0 mg/kg/injection, schedule: Q01DX001 (ip), vehicle: Klucel (hydroxypropylcellulose) (HPC)
[4] = dose: 100.0 mg/kg/injection, schedule: Q01DX009 (ip), vehicle: saline with Tween-80
[5] = dose: 200.0 mg/kg/injection, schedule: Q01DX009 (ip), vehicle: saline with Tween-80
[6] = dose: 100.0 mg/kg/injection, schedule: Q04DX003 (ip), vehicle: saline with Tween-80
[7] = dose: 200.0 mg/kg/injection, schedule: Q04DX003 (ip), vehicle: saline with Tween-80
[8] = dose: 400.0 mg/kg/injection, schedule: Q04DX003 (ip), vehicle: saline with Tween-80
[9] = dose: 400.0 mg/kg/injection, schedule: Q01DX009 (ip), vehicle: saline with Tween-80
[10] = dose: 100.0 mg/kg/injection, schedule: Q04DX003 (ip), vehicle: Klucel (hydroxypropylcellulose) (HPC)
[11] = dose: 200.0 mg/kg/injection, schedule: Q04DX003 (ip), vehicle: Klucel (hydroxypropylcellulose) (HPC)
[12] = dose: 100.0 mg/kg/injection, schedule: Q01DX001 (ip), vehicle: carboxymethylcellulose (CMC)
[13] = dose: 200.0 mg/kg/injection, schedule: Q01DX001 (ip), vehicle: carboxymethylcellulose (CMC)
[14] = dose: 400.0 mg/kg/injection, schedule: Q01DX001 (ip), vehicle: carboxymethylcellulose (CMC)

Measured: T/C

N#C/C(=N\N=Nc1ccccc1)c1ccccc1
inactive: dose: 1.5 mg/kg/injection, schedule: Q01DX009 (ip), vehicle: DMSO 90 % of control | dose: 6.0 mg/kg/injection, schedule: Q01DX009 (ip), vehicle: DMSO 92 % of control | dose: 12.5 mg/kg/injection, schedule: Q01DX009 (ip), vehicle: DMSO 98 % of control | dose: 12.5 mg/kg/injection, schedule: Q04DX003 (ip), vehicle: DMSO 98 % of control | dose: 25.0 mg/kg/injection, schedule: Q04DX003 (ip), vehicle: DMSO 98 % of control | dose: 50.0 mg/kg/injection, schedule: Q04DX003 (ip), vehicle: DMSO 102 % of control

COc1ccc(/C=C2\N=C(c3ccc([N+](=O)[O-])cc3)OC2=O)cc1
inactive: dose: 100.0 mg/kg/injection, schedule: Q01DX009 (ip), vehicle: Klucel (hydroxypropylcellulose) (HPC) 93 % of control | dose: 200.0 mg/kg/injection, schedule: Q01DX009 (ip), vehicle: Klucel (hydroxypropylcellulose) (HPC) 91 % of control | dose: 400.0 mg/kg/injection, schedule: Q01DX009 (ip), vehicle: Klucel (hydroxypropylcellulose) (HPC) 95 % of control

S=c1[nH]c2ccccc2s1.[Pb]
inactive: [1] 94 % of control | [2] 100 % of control | [3] 100 % of control

O=C(O)CSc1ccc(Cl)cc1
inactive: dose: 50.0 mg/kg/injection, schedule: Q01DX009 (ip), vehicle: saline with Tween-80 100 % of control | [4] 93 % of control | [5] 94 % of control

N#[N+]c1n[nH]nc1C(N)=O
inactive: dose: 25.0 mg/kg/injection, schedule: Q01DX Z (ip), vehicle: carboxymethylcellulose (CMC) 97 % of control | dose: 35.0 mg/kg/injection, schedule: Q01DX Z (ip), vehicle: carboxymethylcellulose (CMC) 95 % of control

CC1=C2C(=CC(C)(C)[C@@H]2O)C(=O)[C@](C)(O)C12CC2
inactive: dose: 75.0 micrograms/kg/injection, schedule: Q01DX Z (ip), vehicle: saline 98 % of control | dose: 150.0 micrograms/kg/injection, schedule: Q01DX Z (ip), vehicle: saline 104 % of control | dose: 300.0 micrograms/kg/injection, schedule: Q01DX Z (ip), vehicle: saline 106 % of control | dose: 600.0 micrograms/kg/injection, schedule: Q01DX Z (ip), vehicle: saline 106 % of control

COC(=O)C1CC[N-]CC1.COC(=O)C1CC[N-]CC1.[Cl][Pt+2][Cl]
inactive: [6] 106 % of control | [7] 106 % of control | [8] 106 % of control

O=c1[nH]c(=O)n(CCc2cccs2)cc1F
inactive: [4] 98 % of control | [6] 93 % of control | [5] 96 % of control | [7] 96 % of control | [9] 98 % of control | [8] 95 % of control

COc1cc2cnccc2cc1OCc1ccccc1
inactive: dose: 25.0 mg/kg/injection, schedule: Q01DX009 (ip), vehicle: water 96 % of control | dose: 50.0 mg/kg/injection, schedule: Q01DX009 (ip), vehicle: water 97 % of control | dose: 100.0 mg/kg/injection, schedule: Q01DX009 (ip), vehicle: water 100 % of control

CN(C)CCC(=O)c1ccc(-c2ccccc2)cc1
inactive: [10] 97 % of control | [11] 97 % of control

CC(=O)CCc1ccccc1
inactive: [12] 101 % of control | [13] 103 % of control | [14] 101 % of control

Cc1cc([N+](C)(C)C)cc(C)c1C#[N+][O-]
inactive: dose: 1.25 mg/kg/injection, schedule: Q01DX001 (ip), vehicle: saline 104 % of control | dose: 2.5 mg/kg/injection, schedule: Q01DX001 (ip), vehicle: saline 93 % of control | dose: 5.0 mg/kg/injection, schedule: Q01DX001 (ip), vehicle: saline 102 % of control | dose: 10.0 mg/kg/injection, schedule: Q01DX001 (ip), vehicle: saline 102 % of control

CC[N+](CC)(CC)CCCC[P+](CC)(CC)CC
inactive: dose: 12.0 mg/kg/injection, schedule: Q04DX003 (ip), vehicle: other 95 % of control | dose: 25.0 mg/kg/injection, schedule: Q04DX003 (ip), vehicle: other 90 % of control | dose: 50.0 mg/kg/injection, schedule: Q04DX003 (ip), vehicle: other 93 % of control

CC1COCC(C)N1CC(=O)Nc1ccc(S(=O)(=O)c2ccc(NC(=O)CN3C(C)COCC3C)cc2)cc1 (stereo unspecified)
inactive: [12] 107 % of control | [13] 95 % of control | [14] 95 % of control

CC1(C)N=C(N)N=C(N)N1c1ccc(OCCCNS(=O)(=O)c2ccc(S(=O)(=O)F)cc2)c(Cl)c1
inactive: dose: 37.5 mg/kg/injection, schedule: Q04DX003 (ip), vehicle: saline with Tween-80 103 % of control | dose: 75.0 mg/kg/injection, schedule: Q04DX003 (ip), vehicle: saline with Tween-80 108 % of control | dose: 150.0 mg/kg/injection, schedule: Q04DX003 (ip), vehicle: saline with Tween-80 107 % of control

COc1ccc(OC)c2c1C1C=CC2C1
inactive: dose: 177.0 mg/kg/injection, schedule: Q01DX001 (ip), vehicle: other 98 % of control | dose: 266.0 mg/kg/injection, schedule: Q01DX001 (ip), vehicle: other 94 % of control | dose: 400.0 mg/kg/injection, schedule: Q01DX001 (ip), vehicle: other 89 % of control | dose: 600.0 mg/kg/injection, schedule: Q01DX001 (ip), vehicle: other 96 % of control

CC(C)NC(=O)c1ccccc1
inactive: [1] 96 % of control | [10] 96 % of control | [2] 98 % of control | [11] 103 % of control | [3] 101 % of control | dose: 400.0 mg/kg/injection, schedule: Q04DX003 (ip), vehicle: Klucel (hydroxypropylcellulose) (HPC) 101 % of control

Cc1ccc(-n2c(O)c(C=N)c(=O)n(-c3ccc(C)cc3)c2=O)cc1
inactive: [4] 98 % of control | [5] 98 % of control | [9] 95 % of control

CCCCSC1=NCCCS1
inactive: dose: 75.0 mg/kg/injection, schedule: Q01DX001 (ip), vehicle: other 104 % of control | dose: 150.0 mg/kg/injection, schedule: Q01DX001 (ip), vehicle: other 111 % of control | dose: 300.0 mg/kg/injection, schedule: Q01DX001 (ip), vehicle: other 102 % of control

Cc1ccc(S(=O)(=O)OCC(C)(C)NC(=O)c2ccc([N+](=O)[O-])cc2)cc1
inactive: dose: 100.0 mg/kg/injection, schedule: Q01DX001 (ip), vehicle: saline with Tween-80 91 % of control | dose: 200.0 mg/kg/injection, schedule: Q01DX001 (ip), vehicle: saline with Tween-80 105 % of control | dose: 400.0 mg/kg/injection, schedule: Q01DX001 (ip), vehicle: saline with Tween-80 91 % of control

CCN(C(=O)Nc1cccc(Cl)c1)c1ccccc1
inactive: [4] 90 % of control | [6] 96 % of control | [5] 90 % of control | [7] 97 % of control | [9] 86 % of control | [8] 97 % of control
